# Measured values published in patent US8748466B2, “Isoxazole derivatives useful as antibacterial agents” (Pfizer Inc., priority 2011, dated 2014).
# Like-named read-outs stand apart in the source and are kept apart here.
# Tests used:
# [1] = system: Acinetobacter baumannii/haemolyticus: Multidrug-resistant clinical isolate AB-3167; experiment: MIC determination (CLSI), AB-3167; type: cell-based; settings: overnight incubation, duplicate, lower of the two values reported
# Protocol: (§1) The in vitro antibacterial activity of compounds described in the Examples was evaluated by minimum inhibitory concentration (MIC) testing according to Clinical and Laboratory Standards Institute (CLSI). See: Clinical and Laboratory Standards Institute. Methods for Dilution Antimicrobial Susceptibility Tests for Bacteria that Grow Aerobically; Approved Standard-Eighth Edition. CLSI document M7-A8 [ISBN 1-56238-689-1]. Clinical and Laboratory Standards Institute, 940 West Valley Road, Suite 1400, Wayne, Pa. 19087-1898 USA, 2006; also Clinical and Laboratory Standards Institute. Performance Standards for Antimicrobial Susceptibility Testing; Twentieth Informational Supplement. CLSI document M100-S20 [ISBN1-56238-716-2]. Clinical and Laboratory Standards Institute.
# (§2) The MIC determination is a standard laboratory method for evaluating the antibacterial activity of a compound. The MIC represents the lowest drug concentration that inhibits visible growth of bacteria following overnight incubation. […] Typically, the drug concentration range is broken down into 2-fold increments (e.g., 0.06 μg/mL, 0.12 μg/mL. 0.25 μg/mL, 0.50 μg/mL, 1.0 μg/mL, etc.) and the various drug concentrations are all individually incubated overnight with approximately the same number of bacteria. The MIC is then determined by visually inspecting the drug effect at each concentration, and identifying the lowest drug concentration that has inhibited bacterial growth as compared to the drug free control. Typically, bacteria continue to grow at drug concentrations lower than the MIC and don't grow at concentrations at and above the MIC.
# (§3) The MIC values described in Tables 4 and 5 below were derived from assays wherein each test compound was evaluated in duplicate. In cases where the duplicate values varied by 0-2-fold, the lower of the two values was reported below. Generally speaking, if the duplicate values varied by more than 2-fold, the assay was considered non-valid and was repeated until the variation between duplicate runs was 2-fold. In line with the CLSI guidelines referred to above, both control organisms and reference compounds were utilized in each MIC assay to provide proper quality control. MIC values generated with these control organisms and reference compounds were required to fall within a defined range for the assay to be considered valid and be included herein. Those skilled in the art will recognize that MIC values can and do vary from experiment to experiment. Generally speaking, it should be recognized that MIC values often vary +/−2-fold from experiment to experiment. While a single MIC is reported for each compound and each microorganism, the reader should not conclude that each compound was only tested once. Several of the compounds were subjected to multiple tests. The data reported in Tables 4 and 5 is reflective of the compound's relative activity and different MICs may have been generated on these occasions in line with the guidelines described above.
# (§4) The following bacterial strains were used in these MIC determinations:
# 3) Acinetobacter baumannii/haemolyticus: Multidrug-resistant clinical isolate labeled as AB-3167 in Tables 4 and 5;
# [2] = system: Pseudomonas aeruginosa UC12120 (mouse virulent); experiment: MIC determination (CLSI), PA-UC12120; type: cell-based; settings: UC12120, read-out: PA-UC12120 MIC
# Protocol: as §1, §2, §3, §4
# 1) Pseudomonas aeruginosa UC12120 (mouse virulent) labeled as PA-UC12120 in Tables 4 and 5;
# [3] = molecular target: T1, Pseudomonas aeruginosa LpxC enzyme (Pseudomonas aeruginosa, UniProt P47205); experiment: LpxC enzyme IC50 assay (PA LpxC enzyme IC50), BioTrove RapidFire mass spectrometry; type: biochemical
# T1 construct: made in house; host or cells: E. coli
# T1 sequence (P47205 1-303): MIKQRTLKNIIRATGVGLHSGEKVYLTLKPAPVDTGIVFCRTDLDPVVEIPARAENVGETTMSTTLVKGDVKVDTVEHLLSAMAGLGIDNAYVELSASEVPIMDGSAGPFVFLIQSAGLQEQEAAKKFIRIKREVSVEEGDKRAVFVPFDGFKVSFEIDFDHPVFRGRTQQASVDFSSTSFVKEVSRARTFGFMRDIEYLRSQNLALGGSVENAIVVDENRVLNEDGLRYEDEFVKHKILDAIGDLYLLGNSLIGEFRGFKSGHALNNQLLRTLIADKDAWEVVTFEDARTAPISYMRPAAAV
# Protocol: In order to assess the compounds biological activity selected in vitro assays were conducted on selected compounds. One of the assays measured the compounds ability to disrupt the synthesis of lipopolysaccharide, LPS, which is a component of the outer membrane of Gram-negative bacteria. Disruption of this synthesis is lethal to the bacteria. The assay determined the compound's ability to inhibit LpxC, which is the first enzyme in the biosynthetic pathway for LPS (measured as IC50). Additionally, MICs (minimal inhibitory concentrations) were determined for several bacteria. The specific protocols are described below:
# A) IC50 Assay LpxC Enzyme from P. aeruginosa Labeled as PA LpxC Enzyme IC50):
# At the end of 1 hour, 5 ul of 1 N HCl was added to stop the enzyme reaction, the plates were centrifuged, and then processed with the BioTrove Rapidfire HTMS Mass Spectrometry System. A no-enzyme control was used in calculating the IC50 values from the percent conversion values.
# [4] = system: Escherichia coli EC-1: VOGEL, mouse virulent; experiment: MIC determination (CLSI), EC-1; type: cell-based; settings: read-out: EC-1 MIC
# Protocol: as §1, §2, §3, §4
# 2) Escherichia coli EC-1: VOGEL, mouse virulent labeled as EC-1 in Tables 4 and 5;
# [5] = P. aeruginosa LpxC enzyme 0.1 nM, 25° C., 1 hour, pH 8.0, read-out: PA:IC50
SMILES,MIC [1] [µg/mL],MIC [2] [µg/mL],"IC50 [3, 5] [nM]",MIC [4] [µg/mL],IC50 [3] [nM]
"CC(CCc1cc(CCc2ccccc2)no1)(C(=O)NO)S(C)(=O)=O (racemic) [Example 39, N-hydroxy-2-methyl-2-(methylsulfonyl)-4-[3-(2-phenylethyl)isoxazol-5-yl]butanamide]",> 64,4,9.8,32,–
"COc1ccc(-c2cc(CC[C@](C)(C(=O)NO)S(C)(=O)=O)on2)c(F)c1 [Example 3, (2R)-4-[3-(2-fluoro-4-methoxyphenyl)isoxazol-5-yl]-N-hydroxy-2-methyl-2-(methylsulfonyl)butanamide]",> 64,0.5,–,4,4.4
"CC(CCc1cc(CC2(O)CCCCC2)on1)(C(=O)NO)S(C)(=O)=O (racemic) [Example 17, N-hydroxy-4-{5-[(1-hydroxycyclohexyl)methyl]isoxazol-3-yl}-2-methyl-2-(methylsulfonyl)butanamide]",> 64,> 64,> 100,> 64,–
"CC(CCc1cc(CNS(=O)(=O)c2ccc(F)cc2)on1)(C(=O)NO)S(C)(=O)=O (racemic) [Example 27, 4-[5-({[(4-fluorophenyl)sulfonyl]amino}methyl)isoxazol-3-yl]-N-hydroxy-2-methyl-2-(methylsulfonyl)butanamide]",> 64,> 64,> 100,> 64,–
"C[C@@](CCc1cc(-c2ccccc2)on1)(C(=O)NO)S(C)(=O)=O [Example 6, (2R)-N-hydroxy-2-methyl-2-(methylsulfonyl)-4-(5-phenylisoxazol-3-yl)butanamide]",> 64,0.25,–,8,0.51
"CC(CCc1cc(-c2ncccc2F)no1)(C(=O)NO)S(C)(=O)=O (racemic) [Example 43, 4-[3-(3-fluoropyridin-2-yl)isoxazol-5-yl]-N-hydroxy-2-methyl-2-(methylsulfonyl)butanamide]",> 64,32,> 100,64,–
"Cc1cc(-c2cc(CCC(C)(C(=O)NO)S(C)(=O)=O)no2)ccc1OC(F)F (racemic) [Example 22, 4-{5-[4-(difluoromethoxy)-3-methylphenyl]isoxazol-3-yl}-N-hydroxy-2-methyl-2-(methylsulfonyl)butanamide]",> 64,1,1.5,8,–
"CCOC(C)(C)c1cc(CCC(C)(C(=O)NO)S(C)(=O)=O)on1 (racemic) [Example 31, 4-[3-(1-ethoxy-1-methylethyl)isoxazol-5-yl]-N-hydroxy-2-methyl-2-(methylsulfonyl)butanamide]",> 64,> 64,> 100,> 64,–
"Cc1ccc(-c2cc(CCC(C)(C(=O)NO)S(C)(=O)=O)on2)cc1 (racemic) [Example 38, N-hydroxy-2-methyl-4-[3-(4-methylphenyl)isoxazol-5-yl]-2-(methylsulfonyl)butanamide]",> 64,1,–,8,2.9
